This note sets out measurements from ChEMBL document CHEMBL4373723 (J Med Chem, 2019).

The structures appear in SMILES notation. Activity calls are given as the source filed them. No cut-off for these calls is given here. Bridge positions count the residues as written; N and C are the ends. Square brackets hold non-standard residues; d marks the D form. Peptide text beside a SMILES is read from it. I, II: the chains in the order shown. Phe(3,4-Cl2) = N[C@@H](Cc1ccc(Cl)c(Cl)c1)C(=O)O; Phe(2,4-Cl2) = N[C@@H](Cc1ccc(Cl)cc1Cl)C(=O)O

Assay [1] deals with T1, Frizzled-7 (Homo sapiens, UniProt O75084). The format is cell-based. The following applies: cho.
In assay [2] the target is T1, Frizzled-7. The note with it: CHO.
Description: Binding affinity to recombinant human Frizzled-7 (Gln33 to Leu185 residues)/human IgG1 chimeric protein expressed in CHO cells assessed as association rate constant by SPR assay
The target of assay [3] is T1, Frizzled-7. The experiment in a line: biochemical. The format is cell-based, CHO.

As for `CSCC[C@H](NC(=O)[C@@H](CC1CCCC1)NC(=O)[C@H](Cc1cnc[nH]1)NC(=O)[C@H](CSSC[C@H](NC(=O)[C@H](Cc1c[nH]c2ccccc12)NC(=O)[C@H](Cc1ccccc1)NC(=O)[C@H](CCC(=O)O)NC(=O)[C@H](CC(C)C)NC(=O)[C@H](CC(=O)O)NC(=O)[C@H](CC(=O)O)NC(=O)[C@H](CO)NC(C)=O)C(=O)N[C@@H](Cc1cnc[nH]1)C(=O)N[C@H](CC1CCCC1)C(=O)N[C@@H](CCSC)C(=O)N[C@@H](Cc1ccc(O)cc1)C(N)=O)NC(=O)[C@H](Cc1c[nH]c2ccccc12)NC(=O)[C@H](Cc1ccccc1)NC(=O)[C@H](CCC(=O)O)NC(=O)[C@H](CC(C)C)NC(=O)[C@H](CC(=O)O)NC(=O)[C@H](CC(=O)O)NC(=O)[C@H](CO)NC(C)=O)C(=O)N[C@@H](Cc1ccc(O)cc1)C(N)=O`, the Kd stood at 44.1 ×10⁻³ /s at Frizzled-7 [1] and 14.5 nM on Frizzled-7 [3] (cho, read-out: Kd). In addition, at Frizzled-7 [2], the Ka worked out at 30.4 ×10⁵ /M/s.
Taken in the same sequence, the figures for `CSCC[C@H](NC(=O)[C@@H](CC1CC1)NC(=O)[C@H](Cc1cnc[nH]1)NC(=O)[C@H](CSSC[C@H](NC(=O)[C@H](Cc1c[nH]c2ccccc12)NC(=O)[C@H](Cc1ccccc1)NC(=O)[C@H](CCC(=O)O)NC(=O)[C@H](CC(C)C)NC(=O)[C@H](CC(=O)O)NC(=O)[C@H](CC(=O)O)NC(=O)[C@H](CO)NC(C)=O)C(=O)N[C@@H](Cc1cnc[nH]1)C(=O)N[C@H](CC1CC1)C(=O)N[C@@H](CCSC)C(=O)N[C@@H](Cc1ccc(O)cc1)C(N)=O)NC(=O)[C@H](Cc1c[nH]c2ccccc12)NC(=O)[C@H](Cc1ccccc1)NC(=O)[C@H](CCC(=O)O)NC(=O)[C@H](CC(C)C)NC(=O)[C@H](CC(=O)O)NC(=O)[C@H](CC(=O)O)NC(=O)[C@H](CO)NC(C)=O)C(=O)N[C@@H](Cc1ccc(O)cc1)C(N)=O` were 1.26 ×10⁻³ /s, 0.16 nM and 80.4 ×10⁵ /M/s.
Taken in the same sequence, the figures for `CSCC[C@H](NC(=O)[C@@H](CC1CCC1)NC(=O)[C@H](Cc1cnc[nH]1)NC(=O)[C@H](CSSC[C@H](NC(=O)[C@H](Cc1c[nH]c2ccccc12)NC(=O)[C@H](Cc1ccccc1)NC(=O)[C@H](CCC(=O)O)NC(=O)[C@H](CC(C)C)NC(=O)[C@H](CC(=O)O)NC(=O)[C@H](CC(=O)O)NC(=O)[C@H](CO)NC(C)=O)C(=O)N[C@@H](Cc1cnc[nH]1)C(=O)N[C@H](CC1CCC1)C(=O)N[C@@H](CCSC)C(=O)N[C@@H](Cc1ccc(O)cc1)C(N)=O)NC(=O)[C@H](Cc1c[nH]c2ccccc12)NC(=O)[C@H](Cc1ccccc1)NC(=O)[C@H](CCC(=O)O)NC(=O)[C@H](CC(C)C)NC(=O)[C@H](CC(=O)O)NC(=O)[C@H](CC(=O)O)NC(=O)[C@H](CO)NC(C)=O)C(=O)N[C@@H](Cc1ccc(O)cc1)C(N)=O` were 2.13 ×10⁻³ /s, 0.4 nM and 53 ×10⁵ /M/s.
`CSCC[C@H](NC(=O)[C@@H](CC(C)(C)C)NC(=O)[C@H](Cc1cnc[nH]1)NC(=O)[C@H](CSSC[C@H](NC(=O)[C@H](Cc1c[nH]c2ccccc12)NC(=O)[C@H](Cc1ccccc1)NC(=O)[C@H](CCC(=O)O)NC(=O)[C@H](CC(C)C)NC(=O)[C@H](CC(=O)O)NC(=O)[C@H](CC(=O)O)NC(=O)[C@H](CO)NC(C)=O)C(=O)N[C@@H](Cc1cnc[nH]1)C(=O)N[C@H](CC(C)(C)C)C(=O)N[C@@H](CCSC)C(=O)N[C@@H](Cc1ccc(O)cc1)C(N)=O)NC(=O)[C@H](Cc1c[nH]c2ccccc12)NC(=O)[C@H](Cc1ccccc1)NC(=O)[C@H](CCC(=O)O)NC(=O)[C@H](CC(C)C)NC(=O)[C@H](CC(=O)O)NC(=O)[C@H](CC(=O)O)NC(=O)[C@H](CO)NC(C)=O)C(=O)N[C@@H](Cc1ccc(O)cc1)C(N)=O`: the Kd on Frizzled-7 [1] is 2.16 ×10⁻³ /s; at Frizzled-7 [3] (cho, read-out: Kd), 0.32 nM. This compound also showed a Ka at Frizzled-7 [2] of 68.8 ×10⁵ /M/s.
Take `CSCC[C@H](NC(=O)[C@@H](NC(=O)[C@H](Cc1cnc[nH]1)NC(=O)[C@H](CO)NC(=O)[C@H](Cc1c[nH]c2ccccc12)NC(=O)[C@H](Cc1ccccc1)NC(=O)[C@H](CCC(=O)O)NC(=O)[C@H](CC(C)C)NC(=O)[C@H](CC(=O)O)NC(=O)[C@H](CC(=O)O)NC(=O)[C@H](CO)NC(=O)[C@@H]1CCCN1C(=O)[C@H](CC(C)C)NC(C)=O)C(C)C)C(=O)N[C@@H](Cc1ccc(O)cc1)C(N)=O` (Ac-LPSDDLEFWSHVMY-NH2): the Kd entry on Frizzled-7 [1] and on Frizzled-7 [3] (cho) was “Not Active” each time. The Ka entry on Frizzled-7 [2] is “inactive”.
`CSCC[C@H](NC(=O)[C@@H](NC(=O)[C@H](Cc1cnc[nH]1)NC(=O)[C@H](CSSC[C@H](NC(=O)[C@H](Cc1c[nH]c2ccccc12)NC(=O)[C@H](Cc1ccccc1)NC(=O)[C@H](CCC(=O)O)NC(=O)[C@H](Cc1ccccc1)NC(=O)[C@H](CC(=O)O)NC(=O)[C@H](CC(=O)O)NC(=O)[C@H](CO)NC(C)=O)C(=O)N[C@@H](Cc1cnc[nH]1)C(=O)N[C@H](C(=O)N[C@@H](CCSC)C(=O)N[C@@H](Cc1ccc(O)cc1)C(N)=O)C(C)C)NC(=O)[C@H](Cc1c[nH]c2ccccc12)NC(=O)[C@H](Cc1ccccc1)NC(=O)[C@H](CCC(=O)O)NC(=O)[C@H](Cc1ccccc1)NC(=O)[C@H](CC(=O)O)NC(=O)[C@H](CC(=O)O)NC(=O)[C@H](CO)NC(C)=O)C(C)C)C(=O)N[C@@H](Cc1ccc(O)cc1)C(N)=O` (I: Ac-SDDFEFWCHVMY-NH2 / II: Ac-SDDFEFWCHVMY-NH2; disulfide I:8-II:8): the values for the Kd on Frizzled-7 [1] and on Frizzled-7 [3] (read-out: Kd) were 62.8 ×10⁻³ /s and 122 nM, respectively. At Frizzled-7 [2], this compound displayed a Ka of 5.3 ×10⁵ /M/s.
Taken in the same sequence, the figures for `CC[C@H](C)[C@H](NC(=O)[C@H](Cc1cnc[nH]1)NC(=O)[C@H](CSSC[C@H](NC(=O)[C@H](Cc1c[nH]c2ccccc12)NC(=O)[C@H](Cc1ccccc1)NC(=O)[C@H](CCC(=O)O)NC(=O)[C@H](CC(C)C)NC(=O)[C@H](CC(=O)O)NC(=O)[C@H](CC(=O)O)NC(=O)[C@H](CO)NC(C)=O)C(=O)N[C@@H](Cc1cnc[nH]1)C(=O)N[C@H](C(=O)N[C@@H](CCSC)C(=O)N[C@@H](Cc1ccc(O)cc1)C(N)=O)[C@@H](C)CC)NC(=O)[C@H](Cc1c[nH]c2ccccc12)NC(=O)[C@H](Cc1ccccc1)NC(=O)[C@H](CCC(=O)O)NC(=O)[C@H](CC(C)C)NC(=O)[C@H](CC(=O)O)NC(=O)[C@H](CC(=O)O)NC(=O)[C@H](CO)NC(C)=O)C(=O)N[C@@H](CCSC)C(=O)N[C@@H](Cc1ccc(O)cc1)C(N)=O` (I: Ac-SDDLEFWCHIMY-NH2 / II: Ac-SDDLEFWCHIMY-NH2; disulfide I:8-II:8) were 0.96 ×10⁻³ /s, 0.18 nM and 55.1 ×10⁵ /M/s.
As to `CSCC[C@H](NC(=O)[C@H](CC(C)C)NC(=O)[C@H](Cc1cnc[nH]1)NC(=O)[C@H](CSSC[C@H](NC(=O)[C@H](Cc1c[nH]c2ccccc12)NC(=O)[C@H](Cc1ccccc1)NC(=O)[C@H](CCC(=O)O)NC(=O)[C@H](CC(C)C)NC(=O)[C@H](CC(=O)O)NC(=O)[C@H](CC(=O)O)NC(=O)[C@H](CO)NC(C)=O)C(=O)N[C@@H](Cc1cnc[nH]1)C(=O)N[C@@H](CC(C)C)C(=O)N[C@@H](CCSC)C(=O)N[C@@H](Cc1ccc(O)cc1)C(N)=O)NC(=O)[C@H](Cc1c[nH]c2ccccc12)NC(=O)[C@H](Cc1ccccc1)NC(=O)[C@H](CCC(=O)O)NC(=O)[C@H](CC(C)C)NC(=O)[C@H](CC(=O)O)NC(=O)[C@H](CC(=O)O)NC(=O)[C@H](CO)NC(C)=O)C(=O)N[C@@H](Cc1ccc(O)cc1)C(N)=O` (I: Ac-SDDLEFWCHLMY-NH2 / II: Ac-SDDLEFWCHLMY-NH2; disulfide I:8-II:8), the Kd was 1.9 ×10⁻³ /s on Frizzled-7 [1] and 0.28 nM at Frizzled-7 [3] (read-out: Kd). The Ka on Frizzled-7 [2] was 67.2 ×10⁵ /M/s.
For the compound `CSCC[C@H](NC(=O)[C@@H](NC(=O)[C@H](Cc1cnc[nH]1)NC(=O)[C@H](CSSC[C@H](NC(=O)[C@H](Cc1c[nH]c2ccccc12)NC(=O)[C@H](Cc1ccccc1)NC(=O)[C@H](CCC(=O)O)NC(=O)[C@H](CC(C)C)NC(=O)[C@H](CC(=O)O)NC(=O)[C@H](CC(=O)O)NC(=O)[C@H](CO)NC(C)=O)C(=O)N[C@@H](Cc1cnc[nH]1)C(=O)N[C@H](C(=O)N[C@@H](CCSC)C(=O)N[C@@H](Cc1ccc(Cl)cc1Cl)C(N)=O)C(C)C)NC(=O)[C@H](Cc1c[nH]c2ccccc12)NC(=O)[C@H](Cc1ccccc1)NC(=O)[C@H](CCC(=O)O)NC(=O)[C@H](CC(C)C)NC(=O)[C@H](CC(=O)O)NC(=O)[C@H](CC(=O)O)NC(=O)[C@H](CO)NC(C)=O)C(C)C)C(=O)N[C@@H](Cc1ccc(Cl)cc1Cl)C(N)=O` (I: Ac-SDDLEFWCHVM[Phe(2,4-Cl2)]-NH2 / II: Ac-SDDLEFWCHVM[Phe(2,4-Cl2)]-NH2; disulfide I:8-II:8), the values for the Kd at Frizzled-7 [1] and at Frizzled-7 [3] (read-out: Kd) were 2.89 ×10⁻³ /s and 22.5 nM, respectively. Also, the Ka at Frizzled-7 [2] is 1.29 ×10⁵ /M/s.
Taken in the same sequence, the figures for `CSCC[C@H](NC(=O)[C@@H](NC(=O)[C@H](Cc1cnc[nH]1)NC(=O)[C@H](CSSC[C@H](NC(=O)[C@H](Cc1c[nH]c2ccccc12)NC(=O)[C@H](Cc1ccccc1)NC(=O)[C@H](CCC(=O)O)NC(=O)[C@H](CC(C)C)NC(=O)[C@H](CC(=O)O)NC(=O)[C@H](CC(=O)O)NC(=O)[C@H](CO)NC(C)=O)C(=O)N[C@@H](Cc1cnc[nH]1)C(=O)N[C@H](C(=O)N[C@@H](CCSC)C(=O)N[C@@H](Cc1ccc(Cl)c(Cl)c1)C(N)=O)C(C)C)NC(=O)[C@H](Cc1c[nH]c2ccccc12)NC(=O)[C@H](Cc1ccccc1)NC(=O)[C@H](CCC(=O)O)NC(=O)[C@H](CC(C)C)NC(=O)[C@H](CC(=O)O)NC(=O)[C@H](CC(=O)O)NC(=O)[C@H](CO)NC(C)=O)C(C)C)C(=O)N[C@@H](Cc1ccc(Cl)c(Cl)c1)C(N)=O` (I: Ac-SDDLEFWCHVM[Phe(3,4-Cl2)]-NH2 / II: Ac-SDDLEFWCHVM[Phe(3,4-Cl2)]-NH2; disulfide I:8-II:8) were 0.9 ×10⁻³ /s, 6.4 nM and 1.4 ×10⁵ /M/s.
